ChEMBL document CHEMBL1201861, “Genomics of Drug Sensitity in Cancer screening data, Wellcome Trust Sanger Institute”
Where a name gives a salt, the structure may show the parent alone.

Tests used:
Assay in all cases: cells
DOHH-2 = assay type: functional, cell-based, Homo sapiens; conditions: Homo sapiens, DOHH-2
Description: SANGER: Inhibition of human DOHH-2 cell growth in a cell viability assay.

EW-3 = assay type: functional, cell-based, Homo sapiens; conditions: Homo sapiens, EW-3
Description: SANGER: Inhibition of human EW-3 cell growth in a cell viability assay.

NCI-H1650 = assay type: functional, cell-based, Homo sapiens; conditions: Homo sapiens, NCI-H1650
Description: SANGER: Inhibition of human NCI-H1650 cell growth in a cell viability assay.

IA-LM = assay type: functional, cell-based, Homo sapiens; conditions: Homo sapiens, IA-LM
Description: SANGER: Inhibition of human IA-LM cell growth in a cell viability assay.

TGW = assay type: functional, cell-based, Homo sapiens; conditions: Homo sapiens, TGW
Description: SANGER: Inhibition of human TGW cell growth in a cell viability assay.

ES7 = assay type: functional, cell-based, Homo sapiens; conditions: Homo sapiens, ES7
Description: SANGER: Inhibition of human ES7 cell growth in a cell viability assay.

AM-38 = assay type: functional, cell-based, Homo sapiens; conditions: Homo sapiens, AM-38
Description: SANGER: Inhibition of human AM-38 cell growth in a cell viability assay.

HCE-4 = assay type: functional, cell-based, Homo sapiens; conditions: Homo sapiens, HCE-4
Description: SANGER: Inhibition of human HCE-4 cell growth in a cell viability assay.

A388 = assay type: functional, cell-based, Homo sapiens; conditions: Homo sapiens, A388
Description: SANGER: Inhibition of human A388 cell growth in a cell viability assay.

HT-144 = assay type: functional, cell-based, Homo sapiens; conditions: Homo sapiens, HT-144
Description: SANGER: Inhibition of human HT-144 cell growth in a cell viability assay.

KGN = assay type: functional, cell-based, Homo sapiens; conditions: Homo sapiens, KGN
Description: SANGER: Inhibition of human KGN cell growth in a cell viability assay.

TE-9 = assay type: functional, cell-based, Homo sapiens; conditions: Homo sapiens, TE-9
Description: SANGER: Inhibition of human TE-9 cell growth in a cell viability assay.

HL-60 = assay type: functional, cell-based, Homo sapiens; conditions: Homo sapiens, HL-60
Description: SANGER: Inhibition of human HL-60 cell growth in a cell viability assay.

K5 = assay type: functional, cell-based, Homo sapiens; conditions: Homo sapiens, K5
Description: SANGER: Inhibition of human K5 cell growth in a cell viability assay.

NCI-H1092 = assay type: functional, cell-based, Homo sapiens; conditions: Homo sapiens, NCI-H1092
Description: SANGER: Inhibition of human NCI-H1092 cell growth in a cell viability assay.

GOTO = assay type: functional, cell-based, Homo sapiens; conditions: Homo sapiens, GOTO
Description: SANGER: Inhibition of human GOTO cell growth in a cell viability assay.

GR-ST = assay type: functional, cell-based, Homo sapiens; conditions: Homo sapiens, GR-ST
Description: SANGER: Inhibition of human GR-ST cell growth in a cell viability assay.

NMC-G1 = assay type: functional, cell-based, Homo sapiens; conditions: Homo sapiens, NMC-G1
Description: SANGER: Inhibition of human NMC-G1 cell growth in a cell viability assay.

ETK-1 = assay type: functional, cell-based, Homo sapiens; conditions: Homo sapiens, ETK-1
Description: SANGER: Inhibition of human ETK-1 cell growth in a cell viability assay.

A498 = assay type: functional, cell-based, Homo sapiens; conditions: Homo sapiens, A498
Description: SANGER: Inhibition of human A498 cell growth in a cell viability assay.

COLO-829 = assay type: functional, cell-based, Homo sapiens; conditions: Homo sapiens, COLO-829
Description: SANGER: Inhibition of human COLO-829 cell growth in a cell viability assay.

EW-16 = assay type: functional, cell-based, Homo sapiens; conditions: Homo sapiens, EW-16
Description: SANGER: Inhibition of human EW-16 cell growth in a cell viability assay.

EW-13 = assay type: functional, cell-based, Homo sapiens; conditions: Homo sapiens, EW-13
Description: SANGER: Inhibition of human EW-13 cell growth in a cell viability assay.

KM-H2 = assay type: functional, cell-based, Homo sapiens; conditions: Homo sapiens, KM-H2
Description: SANGER: Inhibition of human KM-H2 cell growth in a cell viability assay.

GI-ME-N = assay type: functional, cell-based, Homo sapiens; conditions: Homo sapiens, GI-ME-N
Description: SANGER: Inhibition of human GI-ME-N cell growth in a cell viability assay.

Becker = assay type: functional, cell-based, Homo sapiens; conditions: Homo sapiens, Becker
Description: SANGER: Inhibition of human Becker cell growth in a cell viability assay.

HCC1187 = assay type: functional, cell-based, Homo sapiens; conditions: Homo sapiens, HCC1187
Description: SANGER: Inhibition of human HCC1187 cell growth in a cell viability assay.

D-502MG = assay type: functional, cell-based, Homo sapiens; conditions: Homo sapiens, D-502MG
Description: SANGER: Inhibition of human D-502MG cell growth in a cell viability assay.

EM-2 = assay type: functional, cell-based, Homo sapiens; conditions: Homo sapiens, EM-2
Description: SANGER: Inhibition of human EM-2 cell growth in a cell viability assay.

NCI-H209 = assay type: functional, cell-based, Homo sapiens; conditions: Homo sapiens, NCI-H209
Description: SANGER: Inhibition of human NCI-H209 cell growth in a cell viability assay.

JVM-3 = assay type: functional, cell-based, Homo sapiens; conditions: Homo sapiens, JVM-3
Description: SANGER: Inhibition of human JVM-3 cell growth in a cell viability assay.

ES8 = assay type: functional, cell-based, Homo sapiens; conditions: Homo sapiens, ES8
Description: SANGER: Inhibition of human ES8 cell growth in a cell viability assay.

ALL-PO = assay type: functional, cell-based, Homo sapiens; conditions: Homo sapiens, ALL-PO
Description: SANGER: Inhibition of human ALL-PO cell growth in a cell viability assay.

SF-126 = assay type: functional, cell-based, Homo sapiens; conditions: Homo sapiens, SF-126
Description: SANGER: Inhibition of human SF126 cell growth in a cell viability assay.

SK-N-DZ = assay type: functional, cell-based, Homo sapiens; conditions: Homo sapiens, SK-N-DZ
Description: SANGER: Inhibition of human SK-N-DZ cell growth in a cell viability assay.

CP66-MEL = assay type: functional, cell-based, Homo sapiens; conditions: Homo sapiens, CP66-MEL
Description: SANGER: Inhibition of human CP66-MEL cell growth in a cell viability assay.

A4-Fuk = assay type: functional, cell-based, Homo sapiens; conditions: Homo sapiens, A4-Fuk
Description: SANGER: Inhibition of human A4-Fuk cell growth in a cell viability assay.

NCI-H510A = assay type: functional, cell-based, Homo sapiens; conditions: Homo sapiens, NCI-H510A
Description: SANGER: Inhibition of human NCI-H510A cell growth in a cell viability assay.

SHP77 = assay type: functional, cell-based, Homo sapiens, SHP-77; conditions: Homo sapiens, SHP77
Description: SANGER: Inhibition of human SHP-77 cell growth in a cell viability assay.

LB1047-RCC = assay type: functional, cell-based, Homo sapiens; conditions: Homo sapiens, LB1047-RCC
Description: SANGER: Inhibition of human LB1047-RCC cell growth in a cell viability assay.

NB6 = assay type: functional, cell-based, Homo sapiens; conditions: Homo sapiens, NB6
Description: SANGER: Inhibition of human NB6 cell growth in a cell viability assay.

ML-2 = assay type: functional, cell-based, Homo sapiens; conditions: Homo sapiens, ML-2
Description: SANGER: Inhibition of human ML-2 cell growth in a cell viability assay.

IST-SL1 = assay type: functional, cell-based, Homo sapiens; conditions: Homo sapiens, IST-SL1
Description: SANGER: Inhibition of human IST-SL1 cell growth in a cell viability assay.

ES1 = assay type: functional, cell-based, Homo sapiens; conditions: Homo sapiens, ES1
Description: SANGER: Inhibition of human ES1 cell growth in a cell viability assay.

NCI-H82 = assay type: functional, cell-based, Homo sapiens; conditions: Homo sapiens, NCI-H82
Description: SANGER: Inhibition of human NCI-H82 cell growth in a cell viability assay.

SW 962 = assay type: functional, cell-based, Homo sapiens; conditions: Homo sapiens, SW 962
Description: SANGER: Inhibition of human SW962 cell growth in a cell viability assay.

RKO = assay type: functional, cell-based, Homo sapiens; conditions: Homo sapiens, RKO
Description: SANGER: Inhibition of human RKO cell growth in a cell viability assay.

NCI-H1648 = assay type: functional, cell-based, Homo sapiens; conditions: Homo sapiens, NCI-H1648
Description: SANGER: Inhibition of human NCI-H1648 cell growth in a cell viability assay.

LB2241-RCC = assay type: functional, cell-based, Homo sapiens; conditions: Homo sapiens, LB2241-RCC
Description: SANGER: Inhibition of human LB2241-RCC cell growth in a cell viability assay.

HH = assay type: functional, cell-based, Homo sapiens; conditions: Homo sapiens, HH
Description: SANGER: Inhibition of human HH cell growth in a cell viability assay.

## O=C(O)c1ccc(-c2c[nH]c3ncc(-c4ccccc4)cc23)cc1C1CCCC1 [GSK-650394]
DOHH-2
  IC50: > 16000 nM
EW-3
  IC50: > 16000 nM
NCI-H1650
  IC50: > 16000 nM
IA-LM
  IC50: 4120 nM
TGW
  IC50: > 16000 nM
ES7
  IC50: > 16000 nM
AM-38
  IC50: > 16000 nM
HCE-4
  IC50: 7590 nM
A388
  IC50: 7600 nM
HT-144
  IC50: > 16000 nM
KGN
  IC50: > 16000 nM
TE-9
  IC50: > 16000 nM
HL-60
  IC50: > 16000 nM
K5
  IC50: > 16000 nM
NCI-H1092
  IC50: > 16000 nM
GOTO
  IC50: > 16000 nM
GR-ST
  IC50: > 16000 nM
NMC-G1
  IC50: > 16000 nM
ETK-1
  IC50: 10100 nM
A498
  IC50: > 16000 nM
COLO-829
  IC50: > 16000 nM
EW-16
  IC50: 5750 nM
EW-13
  IC50: 3020 nM
KM-H2
  IC50: > 16000 nM
GI-ME-N
  IC50: > 16000 nM
Becker
  IC50: > 16000 nM
HCC1187
  IC50: > 16000 nM
D-502MG
  IC50: > 16000 nM
EM-2
  IC50: > 16000 nM
NCI-H209
  IC50: > 16000 nM
JVM-3
  IC50: > 16000 nM
ES8
  IC50: 7130 nM
ALL-PO
  IC50: 5730 nM
SF-126
  IC50: 8800 nM
SK-N-DZ
  IC50: > 16000 nM
CP66-MEL
  IC50: > 16000 nM
A4-Fuk
  IC50: 14900 nM
NCI-H510A
  IC50: > 16000 nM
SHP77
  IC50: > 16000 nM
LB1047-RCC
  IC50: 6200 nM
NB6
  IC50: > 16000 nM
ML-2
  IC50: > 16000 nM
IST-SL1
  IC50: > 16000 nM
ES1
  IC50: > 16000 nM
NCI-H82
  IC50: > 16000 nM
SW 962
  IC50: > 16000 nM
RKO
  IC50: 1580 nM
NCI-H1648
  IC50: > 16000 nM
LB2241-RCC
  IC50: > 16000 nM
HH
  IC50: > 16000 nM

## COc1cc2ncn(-c3cc(OCc4ccccc4C(F)(F)F)c(C(N)=O)s3)c2cc1OC [GW843682X]
DOHH-2
  IC50: 60.8 nM
EW-3
  IC50: 66.3 nM
NCI-H1650
  IC50: > 256 nM
IA-LM
  IC50: 11.2 nM
TGW
  IC50: 34.7 nM
ES7
  IC50: > 256 nM
AM-38
  IC50: > 256 nM
HCE-4
  IC50: 13.9 nM
A388
  IC50: 15.2 nM
HT-144
  IC50: 16.4 nM
KGN
  IC50: 33.2 nM
TE-9
  IC50: 21.3 nM
HL-60
  IC50: 25.2 nM
K5
  IC50: 72.7 nM
NCI-H1092
  IC50: > 256 nM
GOTO
  IC50: > 256 nM
GR-ST
  IC50: 84 nM
NMC-G1
  IC50: 206 nM
ETK-1
  IC50: 17.3 nM
A498
  IC50: > 256 nM
COLO-829
  IC50: > 256 nM
EW-16
  IC50: 13.3 nM
EW-13
  IC50: > 256 nM
KM-H2
  IC50: 20.5 nM
GI-ME-N
  IC50: 88.3 nM
Becker
  IC50: 59.7 nM
HCC1187
  IC50: 122 nM
D-502MG
  IC50: > 256 nM
EM-2
  IC50: 111 nM
NCI-H209
  IC50: 225 nM
JVM-3
  IC50: > 256 nM
ES8
  IC50: 10.5 nM
ALL-PO
  IC50: 8.76 nM
SF-126
  IC50: 138 nM
SK-N-DZ
  IC50: 37.4 nM
CP66-MEL
  IC50: 162 nM
A4-Fuk
  IC50: 20.8 nM
NCI-H510A
  IC50: 16.6 nM
SHP77
  IC50: 57.3 nM
LB1047-RCC
  IC50: 25.4 nM
NB6
  IC50: 142 nM
ML-2
  IC50: 50.3 nM
IST-SL1
  IC50: > 256 nM
ES1
  IC50: 25 nM
NCI-H82
  IC50: 15.2 nM
SW 962
  IC50: 42.2 nM
RKO
  IC50: 17.2 nM
NCI-H1648
  IC50: 14.4 nM
LB2241-RCC
  IC50: > 256 nM
HH
  IC50: 98.8 nM

## COC1=CC(c2cc3ccccc3[nH]2)=N/C1=C\c1[nH]c(C)cc1C [OBATOCLAX MESYLATE]
DOHH-2
  IC50: < 62.5 nM
EW-3
  IC50: 3410 nM
NCI-H1650
  IC50: 3780 nM
IA-LM
  IC50: 60.5 nM
TGW
  IC50: 17.4 nM
ES7
  IC50: < 62.5 nM
AM-38
  IC50: 192 nM
HCE-4
  IC50: 203 nM
A388
  IC50: 57 nM
HT-144
  IC50: < 62.5 nM
KGN
  IC50: 261 nM
TE-9
  IC50: 233 nM
HL-60
  IC50: 1260 nM
K5
  IC50: 532 nM
NCI-H1092
  IC50: 3080 nM
GOTO
  IC50: 4300 nM
GR-ST
  IC50: < 62.5 nM
NMC-G1
  IC50: 319 nM
ETK-1
  IC50: 56.7 nM
A498
  IC50: > 16000 nM
COLO-829
  IC50: 720 nM
EW-16
  IC50: 39.1 nM
EW-13
  IC50: 44.1 nM
KM-H2
  IC50: 701 nM
GI-ME-N
  IC50: 5010 nM
Becker
  IC50: 1640 nM
HCC1187
  IC50: 1710 nM
D-502MG
  IC50: 6320 nM
EM-2
  IC50: 3640 nM
NCI-H209
  IC50: 3680 nM
JVM-3
  IC50: > 16000 nM
ES8
  IC50: 116 nM
ALL-PO
  IC50: 242 nM
SF-126
  IC50: 273 nM
SK-N-DZ
  IC50: 859 nM
CP66-MEL
  IC50: 871 nM
A4-Fuk
  IC50: 89.5 nM
NCI-H510A
  IC50: 772 nM
SHP77
  IC50: 2010 nM
LB1047-RCC
  IC50: 358 nM
NB6
  IC50: 4430 nM
ML-2
  IC50: 229 nM
IST-SL1
  IC50: 6540 nM
ES1
  IC50: 48.9 nM
NCI-H82
  IC50: 3340 nM
SW 962
  IC50: 65.7 nM
RKO
  IC50: < 62.5 nM
NCI-H1648
  IC50: 113 nM
LB2241-RCC
  IC50: 761 nM
HH
  IC50: 707 nM
